Source: patent US10253002B2, “Compounds and methods of treating infections” (Neoculi Pty Ltd., priority 2013, dated 2019)
≈ marks a conversion by molar mass, not a printed value. Where “and” joins values, the source holds several entries; their conditions need not be identical. Equal entries are not always repeated.

What was measured:
Test in all cases: Broth microdilution MIC, Example 7 (NCL812 and analogues)
Escherichia coli = assay type: cell-based; conditions: 24 hours; 1st and 2nd replicate rows
VRE = assay type: cell-based, Enterococcus spp.; conditions: for MIC (μg/ml) at 24 hours, VRE 1: isolate VRE 1; for MIC (μg/ml) at 24 hours, VRE 1 / MIC (μg/ml) at 24 hours, VRE 2: 1st and 2nd replicate rows; for MIC (μg/ml) at 24 hours, VRE 2: isolate VRE 2; for activity against VRE among analogues: MIC testing, two VRE strains; for VRE: bioassay ranking
Experimental: (§1) Minimum inhibitory concentrations (μg/ml) were determined using the broth microdilution method recommended by the Clinical and Laboratory Standards Institute (CLSI). MIC breakpoints were determined by visual assessment and then confirmed using an ELISA plate reader, measuring absorbance levels at 600 nm. Bacterial growth (turbidity) in the wells with antimicrobial was compared with the amount of growth (turbidity) in the growth-control well (containing no antimicrobial). All isolates were tested in duplicate, if there was a difference of greater than one two-fold dilution in the results, the test was repeated a third time. The purity of the isolates was closely monitored during testing by subculturing the prepared bacterial inoculum onto SBA (sheep blood agar). […] The MIC50, MIC20 and MIC range (minimum and maximum) were calculated for each of the bacterial groups.
(§2) MICs were determined against two MRSA strains, two VRE strains and one strain each of E. coli and Pseudomonas aeruginosa.

MRSA = assay type: cell-based, Staphylococcus aureus; conditions: for MIC (μg/ml) at 24 hours, MRSA 1: isolate MRSA 1; for MIC (μg/ml) at 24 hours, MRSA 1 / MIC (μg/ml) at 24 hours, MRSA 2: 1st and 2nd replicate rows; for MIC (μg/ml) at 24 hours, MRSA 2: isolate MRSA 2; for activity against MRSA among analogues: MIC testing, two MRSA strains
Experimental: as §1, §2

Pseudomonas aeruginosa = assay type: cell-based; conditions: 24 hours; 1st and 2nd replicate rows

MIC (μg/ml) at 24 hours, E. coli (Escherichia coli) | MIC (μg/ml) at 24 hours, VRE 1 (VRE) [µg/mL] | MIC (μg/ml) at 24 hours, VRE 2 (VRE) [µg/mL] | MIC (μg/ml) at 24 hours, MRSA 1 (MRSA) [µg/mL] | MIC (μg/ml) at 24 hours, MRSA 2 (MRSA) [µg/mL] | MIC (μg/ml) at 24 hours, P. aeruginosa (Pseudomonas aeruginosa) [µg/mL] | SMILES | activity against VRE among analogues (VRE) | activity against MRSA among analogues (MRSA) | VRE (VRE) [µg/mL]
>128 µg/mL and >126 µg/mL | >128 | >128 | >128 | >128 | >128 | O=C(N/N=C/c1ccc(Cl)cc1)N/N=C/c1ccc(Cl)cc1 [NCL001] | – | – | –
>128 µg/mL | >128 | >128 | >128 | >128 | >128 | O=C(N/N=C/c1ccccc1Cl)N/N=C/c1ccccc1Cl [NCL002] | – | – | –
>128 µg/mL | >128 | >128 | >128 | >128 | >128 | O=C(N/N=C/c1ccc(F)cc1)N/N=C/c1ccc(F)cc1 [NCL003] | – | – | –
>128 µg/mL | >128 | >128 | >128 | >128 | >128 | O=C(N/N=C/c1cccc(F)c1)N/N=C/c1cccc(F)c1 [NCL004] | – | – | –
>128 µg/mL | >128 | >128 | >128 | >128 | >128 | O=C(N/N=C/c1ccccc1F)N/N=C/c1ccccc1F [NCL005] | – | – | –
>128 µg/mL | >128 | >128 | >128 | >128 | >128 | COc1ccc(/C=N/NC(=O)N/N=C/c2ccc(OC)cc2)cc1 [NCL006] | – | – | –
>128 µg/mL | >128 | >128 | >128 | >128 | >128 | N#Cc1ccc(/C=N/NC(=O)N/N=C/c2ccc(C#N)cc2)cc1 [NCL007] | – | – | –
>128 µg/mL | >128 | >128 | >128 | >128 | >128 | N#Cc1ccccc1/C=N/NC(=O)N/N=C/c1ccccc1C#N [NCL008] | – | – | –
>128 µg/mL | >128 | >128 | >128 | >128 | >128 | N#Cc1cccc(/C=N/NC(=O)N/N=C/c2cccc(C#N)c2)c1 [NCL009] | – | – | –
>128 µg/mL | >128 | >128 | >128 | >128 | >128 | COc1cccc(/C=N/NC(=O)N/N=C/c2cccc(OC)c2)c1 [NCL010] | – | – | –
>128 µg/mL | >128 | 32 (≈ 79.5 µM) | >128 | >128 | >128 | O=C(NN=Cc1cccc(C(F)(F)F)c1)NN=Cc1cccc(C(F)(F)F)c1 [NCL011] | greatest activity | – | –
>128 µg/mL | >128 | >128 | >128 | >128 | >128 | O=C(NN=Cc1ccc(C(F)(F)F)cc1)NN=Cc1ccc(C(F)(F)F)cc1 [NCL012] | – | – | –
>128 µg/mL | >128 | >128 | >128 | >128 | >128 | O=C(N/N=C/c1ccccc1C(F)(F)F)N/N=C/c1ccccc1C(F)(F)F [NCL013] | – | – | –
– | – | – | – | – | – | COc1cc(/C=N/NC(=N)N/N=C/c2ccc(O)c(OC)c2)ccc1O.Cl [NCL117] | greatest activity | greatest activity | –
– | – | – | – | – | – | C#Cc1cccc(C=NNC(=N)NN=Cc2cccc(C#C)c2)c1.Cl [NCL126] | greatest activity | – | –
– | – | – | – | – | – | Cl.N=C(NN=Cc1cccc(Br)c1)NN=Cc1cccc(Br)c1 [NCL131] | greatest activity | – | –
– | – | – | – | – | – | CCCCc1ccc(C=NNC(=N)NN=Cc2ccc(CCCC)cc2)cc1.Cl [NCL136] | greatest activity | greatest activity | –
– | – | – | – | – | – | Cl.N=C(NN=CC(=Cc1ccccc1)c1ccccc1)NN=CC(=Cc1ccccc1)c1ccccc1 [NCL138] | – | greatest activity | –
– | – | – | – | – | – | CSc1ccc(C=NNC(=N)NN=Cc2ccc(SC)cc2)cc1.Cl [NCL140] | greatest activity | greatest activity | 5
– | – | – | – | – | – | Cl.N=C(NN=Cc1csc2ccc(Cl)cc12)NN=Cc1csc2ccc(Cl)cc12 [NCL141] | greatest activity | – | –

MIC (μg/ml) at 24 hours, E. coli (Escherichia coli) | MIC (μg/ml) at 24 hours, VRE 1 (VRE) [µg/mL] | MIC (μg/ml) at 24 hours, VRE 2 (VRE) [µg/mL] | MIC (μg/ml) at 24 hours, MRSA 1 (MRSA) [µg/mL] | MIC (μg/ml) at 24 hours, MRSA 2 (MRSA) [µg/mL] | MIC (μg/ml) at 24 hours, P. aeruginosa (Pseudomonas aeruginosa) [µg/mL] | SMILES | activity against VRE among analogues (VRE) | activity against MRSA among analogues (MRSA) | VRE (VRE) [µg/mL]
– | – | – | – | – | – | COc1ccc(C=CC=NNC(=N)NN=CC=Cc2ccc(OC)cc2)cc1.Cl [NCL150] | – | greatest activity | –
– | – | – | – | – | – | Cl.N=C(NN=Cc1ccc(O)cc1)NN=Cc1ccc(O)cc1 [NCL151] | greatest activity | greatest activity | –
– | – | – | – | – | – | Cl.N=C(NN=C(c1ccc(Cl)cc1O)C1CCCC1)NN=C(c1ccc(Cl)cc1O)C1CCCC1 [NCL159] | greatest activity | greatest activity | –
– | – | – | – | – | – | Cl.N=C(NN=Cc1ccc(OC(F)(F)F)cc1)NN=Cc1ccc(OC(F)(F)F)cc1 [NCL160] | greatest activity | greatest activity | –
– | – | – | – | – | – | CC(=NNC(=N)NN=C(C)c1ccc(N2CCNCC2)cc1)c1ccc(N2CCNCC2)cc1.Cl [NCL161] | greatest activity | greatest activity | –
– | – | – | – | – | – | Cl.N=C(NN=Cc1ccc(SC(F)(F)F)cc1)NN=Cc1ccc(SC(F)(F)F)cc1 [NCL166] | greatest activity | greatest activity | –
– | – | – | – | – | – | CC(=NNC(=N)NN=C(C)c1ccccn1)c1ccccn1.Cl [NCL172] | – | greatest activity | –
– | – | – | – | – | – | Cl.N=C(N/N=C/c1ccc(Cl)nc1)N/N=C/c1ccc(Cl)nc1 [NCL175] | greatest activity | – | –
– | – | – | – | – | – | C/C(=N\Nc1cc(N/N=C(\C)c2ccc(Cl)cc2)ncn1)c1ccc(Cl)cc1 [NCL178] | greatest activity | greatest activity | –
– | – | – | – | – | – | OC/C(=N\Nc1cc(N/N=C(\CO)c2ccc(Cl)cc2)ncn1)c1ccc(Cl)cc1 [NCL180] | greatest activity | greatest activity | 32
– | – | – | – | – | – | Clc1ccc(/C=N/Nc2cc(N/N=C/c3ccc(Cl)cc3)ncn2)cc1 [NCL181] | greatest activity | greatest activity | –
– | – | – | – | – | – | CC(Nc1cc(Cl)nc(N)n1)c1ccccc1 (stereo not drawn) [NCL182] | greatest activity | greatest activity | –
– | – | – | – | – | – | CC(Nc1cc(NC(C)c2ccccc2)ncn1)c1ccccc1 (stereo not drawn) [NCL183] | greatest activity | greatest activity | –
– | – | – | – | – | – | CC(Nc1cc(NC(C)c2ccccc2)nc(N)n1)c1ccccc1 (stereo not drawn) [NCL184] | greatest activity | greatest activity | 32
– | – | – | – | – | – | C/C(=N\Nc1cc(N/N=C(\C)c2ccc(Cl)cc2)ncn1)c1ccc(Cl)cc1.Cl [NCL185] | greatest activity | greatest activity | –
– | – | – | – | – | – | CC(Nc1cnc(NC(C)c2ccc(Cl)cc2)cn1)c1ccc(Cl)cc1 (stereo not drawn) [NCL186] | greatest activity | greatest activity | –
– | – | – | – | – | – | Cl.Clc1ccc(/C=N/Nc2cc(N/N=C/c3ccc(Cl)cc3)ncn2)cc1 [NCL187] | greatest activity | greatest activity | –
– | – | – | – | – | – | Cl.OC/C(=N\Nc1cc(N/N=C(\CO)c2ccc(Cl)cc2)ncn1)c1ccc(Cl)cc1 [NCL189] | greatest activity | greatest activity | –
– | – | – | – | – | – | C/C(=N\NC(=N)N)c1ccc(Cl)cc1.Cl [NCL191] | greatest activity | greatest activity | –
– | – | – | – | – | – | Cl.N=C(N)NN=C(C(=O)O)c1ccccc1 [NCL192] | greatest activity | greatest activity | –
